We go through 21 compounds from US7763752B2, “Amino alcohol derivatives, salts thereof and immunosuppresive agents” (Kyorin Pharmaceutical Co., Ltd., priority 2002, dated 2010).

Data set [1] deals with Host vs Graft Reaction in Mice. Put plainly: Inhibitory effects of test compounds on host vs graft reaction in mice (popliteal lymph node weight). Format: in vivo, C3H/HeN mice. Here is the method: Inhibitory Effects of Test Compounds on Host vs Graft Reaction in Mice
This experiment was performed according to the method described in Transplantation 55(3) (1993): 578-591. Spleens were collected from 7 to 12 week old male BALB/c mice (available from CLEA JAPAN Inc., CHARLES RIVER JAPAN Inc., or JAPAN SLC Inc.). The spleens were placed in an RPMI-1640 medium (SIGMA, GIBCO […] Inc., or IWAKI GLASS Co., Ltd.) and were gently pressed between two slide glasses and then passed through a cell strainer (70 μm, Falcon) to form a cell suspension. The suspension was then centrifuged and the supernatant was discarded. An ammonium chloride-Tris isotonic buffer was added to the suspension to lyse erythrocytes. The cells were then centrifuged three times in RPMI-1640 medium for washing and were resuspended in an RPMI-1640 medium. To this suspension, mitomycin C (KYOWA HAKKO KOGYO Co., Ltd.) was added to a final concentration of 25 μg/mL and the suspension was incubated for 30 minutes at 37° C. in a 5% CO2 atmosphere. The cells were centrifuged three times in RPMI-1640 medium for washing and were resuspended in an RPMI-1640 medium so that the medium would contain 2.5×10^8 cells/mL. This suspension served as a “stimulation cell suspension.” Using a 27 G needle, along with a microsyringe (Hamilton), 20 μL (5×10^6 cells/mouse) of the stimulation cell suspension was subcutaneously injected into the right hind footpad of 6 to 12 week old male C3H/HeN mice (CLEA JAPAN Inc., CHARLES RIVER JAPAN Inc., or JAPAN SLC Inc.). As a normal control group, a group of mice were injected with RPMI-1640 medium alone. 4 days after the injection, right popliteal lymph nodes were collected and were weighed on a Mettler AT201 electronic scale (METTLER TOLEDO Co., Ltd.). Each animal was intraperitoneally administered a test compound once a day for four consecutive days starting on the day of the injection of the stimulation cells (i.e., total of 4 times). As a control group, a group of the animals were administered the same solvent as that used in the preparation of each test compound.

Where [2] appears, read: Mus musculus, ip, dose 0.1 mg/kg.
Where [3] appears, read: Mus musculus, ip, dose 0.03 mg/kg.

Each structure is given as a SMILES string. Where a name gives a salt, the structure may show the parent alone.

Broadly, the melting point is the temperature, or range, at which the solid turns liquid. `Cl.NC(CO)CCCc1ccc(S(=O)(=O)c2cccc(OCc3ccccc3)c2)cc1Cl` (stereo not shown) returned a melting point of 154 to 156 °C.

The compound `Cl.NC(CO)CCCc1ccc(Sc2cccc(C(F)(F)F)c2)cc1Cl` (stereo not shown) yielded a melting point of 166 to 168 °C.

Usually inhibition in vivo stands for the relative decrease from the control value, in per cent. A high value points to strong suppression. Consider `CCC(N)(CO)CCCc1ccc(Sc2cccc(OCc3ccccc3)c2)cc1Cl` (racemic) [Example 188, (±)-2-amino-5-[4-(3-benzyloxyphenylthio)-2-chlorophenyl]-2-ethylpentane-1-ol hydrochloride], for which the inhibition in vivo at 0.1 mg/kg in data set [1] (setting [2]) worked out at 78%.

`CCC(N)(CO)CCc1ccc(Sc2cccc(OCc3ccccc3)c2)cc1Cl` (racemic) [Example 194, (±)-2-amino-4-[4-(3-benzyloxyphenylthio)-2-chlorophenyl]-2-ethylbutane-1-ol]: in data set [1] (setting [2]), 0.1 mg/kg produced 70% inhibition in vivo.

Turning to `CC(N)(CO)CCCc1ccc(Sc2cccc(OCc3ccccc3)c2)cc1Cl` (single isomer, unassigned; (+)) [Example 184, (+)-2-amino-5-[4-(3-benzyloxyphenylthio)-2-chlorophenyl]-2-methylpentane-1-ol], the “Inhibition (%)” value in data set [1] (dose 0.1 mg/kg) is on record as 45%.

`CC(N)(CO)CCCc1ccc(Sc2cccc(OCc3ccccc3)c2)cc1Cl` (single isomer, unassigned; (+)) [Example 185, (+)-2-amino-5-[4-(3-benzyloxyphenylthio)-2-chlorophenyl]-2-methylpentane-1-ol]: the “Inhibition (%)” value in data set [1] (dose 0.1 mg/kg) worked out at 88%.

Compound `CCC(N)(CO)CCCc1ccc(Sc2cccc(OCc3ccccc3)c2)cc1Cl` (single isomer, unassigned; (+)) [Example 189, (+)-2-amino-5-[4-(3-benzyloxyphenylthio)-2-chlorophenyl]-2-ethylpentane-1-ol] returned an inhibition in vivo at 0.03 mg/kg in data set [1] (setting [3]) of 71%.

Consider `CC(N)(CO)CCc1ccc(Sc2cccc(OCc3ccccc3)c2)cc1Cl.Cl` (single isomer, unassigned; (+)) [Example 191, (+)-2-amino-4-[4-(3-benzyloxyphenylthio)-2-chlorophenyl]-2-methylbutane-1-ol hydrochloride], for which, in data set [1] (dose 0.1 mg/kg, hydrochloride), the “Inhibition (%)” value turned out to be 41%.

On to `CC(N)(CO)CCc1ccc(Sc2cccc(OCc3ccccc3)c2)cc1Cl.Cl` (single isomer, unassigned; (+)) [Example 192, (+)-2-amino-4-[4-(3-benzyloxyphenylthio)-2-chlorophenyl]-2-methylbutane-1-ol hydrochloride], for which the “Inhibition (%)” value in data set [1] (dose 0.1 mg/kg, hydrochloride) amounted to 86%.

In turn, `CCCC(N)(CO)CCCc1ccc(Sc2cccc(OCc3ccccc3)c2)cc1Cl.Cl` (single isomer, unassigned; (+)) [Example 209, (+)-2-amino-5-[4-(3-benzyloxyphenylthio)-2-chlorophenyl]-2-propylpentane-1-ol] had a melting point of 55 to 57 °C. Also, in data set [1] (dose 0.03 mg/kg), the “Inhibition (%)” value is 71%.

The compound `CCC(N)(CO)CCc1ccc(Sc2cccc(OCc3ccccc3)c2)cc1Cl` (single isomer, unassigned; (-)) [Example 196, (−)-2-amino-4-[4-(3-benzyloxyphenylthio)-2-chlorophenyl]-2-ethylbutane-1-ol] had an inhibition in vivo at 0.03 mg/kg in data set [1] (setting [3]) of 63%.

`OCC(CCCc1ccc(Oc2cccc(C(F)(F)F)c2)cc1)Nc1ccccc1` (stereo not shown) [Example 127, 2-phenylamino-5-[4-(3-trifluoromethylphenoxy)phenyl]pentane-1-ol] displayed an inhibition in vivo at 10 mg/kg in data set [1] (Mus musculus, ip, dose 10 mg/kg) of 57%.

In data set [1] (Mus musculus, ip), `CC(O)C(CCCc1ccc(Oc2cccc(OCc3ccccc3)c2)cc1Cl)NC(=O)OC(C)(C)C` (stereo not shown) [Example 131, 6-[4-(3-benzyloxyphenoxy)-2-chlorophenyl]-3-t-butoxycarbonylaminohexane-2-ol] registered an inhibition in vivo at 0.3 mg/kg of 57%.

Take `CC(O)C(N)CCCc1ccc(Sc2cccc(OCc3ccccc3)c2)cc1Cl` (stereo not shown) [Example 135, 3-amino-6-[4-(3-benzyloxyphenylthio)-2-chlorophenyl]hexane-2-ol hydrochloride]: testing at 1 mg/kg in data set [1] (Mus musculus, ip, dose 1 mg/kg) gave an inhibition in vivo of 69%.

The compound `NC(CO)(CCO)CCCc1ccc(Sc2cccc(OCc3ccccc3)c2)cc1Cl` (stereo not shown) [Example 148, 3-amino-6-[4-(3-benzyloxyphenylthio)-2-chlorophenyl]-3-hydroxymethylhexanol hydrochloride] returned an inhibition in vivo at 0.3 mg/kg in data set [1] (Mus musculus, ip) of 71%.

In turn, `NC(CO)(CCCO)CCCc1ccc(Sc2cccc(OCc3ccccc3)c2)cc1Cl` (stereo not shown) [Example 151, 4-amino-7-[4-(3-benzyloxyphenylthio)-2-chlorophenyl]-4-hydroxymethylheptanol hydrochloride] returned an inhibition in vivo at 0.03 mg/kg in data set [1] (setting [3]) of 65%.

Turning to `CCCC(N)(CO)CCCc1ccc(Sc2cccc(OCc3ccccc3)c2)cc1Cl` (stereo not shown) [Example 197], the inhibition in vivo at 0.03 mg/kg in data set [1] (setting [3]) turned out to be 54%.

`CC(=O)NC(CO)CCc1ccc(Sc2cccc(OCc3ccccc3)c2)cc1Cl` (stereo not shown) [Example 201, 2-acetylamino-4-[4-(3-benzyloxyphenylthio)-2-chlorophenyl]butane-1-ol]: the melting point lay within 78 to 81 °C.

In turn, `C#CCC(N)(CO)CCCc1ccc(Sc2cccc(OCc3ccccc3)c2)cc1Cl` (stereo not shown) [Example 222, 2-amino-5-[4-(3-benzyloxyphenylthio)-2-chlorophenyl]-2-propargylpentane-1-ol hydrochloride] registered an inhibition in vivo at 0.3 mg/kg in data set [1] (Mus musculus, ip) of 57%.

Take `CC(C)CC(N)(CO)CCCc1ccc(Sc2cccc(OCc3ccccc3)c2)cc1Cl` (stereo not shown) [Example 223, 2-amino-5-[4-(3-benzyloxyphenylthio)-2-chlorophenyl]-2-isobutylpentane-1-ol hydrochloride]: the inhibition in vivo at 0.3 mg/kg in data set [1] (Mus musculus, ip) worked out at 70%.

For the compound `CCC(N)=C(CO)CCCc1ccc(Sc2cccc(OCc3ccccc3)c2)cc1Cl` [Example 227, 3-amino-7-[4-(3-benzyloxyphenylthio)-2-chlorophenyl]-4-hydroxymethyl-3-heptene hydrochloride], at 0.3 mg/kg the inhibition in vivo in data set [1] (Mus musculus, ip) was 58%.
